Experimental data reported in patent US20170044471A1, “Sulfate-Free Liquid Laundry Detergent” (The Sun Products Corporation, priority 2015, published 2017).
Like-named read-outs stand apart in the source and are kept apart here.

Columns and labels:
Zein = settings: normalized to SLS as 100%; Stepan Chemical company literature; cited from earlier work
Zein corn protein [1] = test system: Zein corn protein
From the text: (§1) Zein score can be measured using a Zein test (Gott, E., Aesthet. Medzin., Tenside 15: 313 (1966)), although other methodologies are known in the art. The Zein test determines the extent of denaturation of Zein corn protein after exposure to a surfactant for a given period of time. The higher the Zein score, the greater the skin irritation potential.
(§2) Zein scores for formulations (or detergent products) described herein refer to Zein scores obtained when a 10% dilution of a given formulation (or detergent product) is tested. Zein scores for individual surfactants refer to Zein scores obtained from testing 1% active surfactant solutions.
(§3) The “test surfactant solution” can be a solution with 1 wt % active surfactant when a surfactant is tested by itself Alternatively, the test surfactant solution can be a 10 wt % dilution of a formulation or product described herein. […] An aliquot (3.0 mL) was accurately measured and removed and set aside in a closed container as a blank solution. […] If all of the Zein protein was dissolved, 1 gram of additional Zein protein was added so that some solid remained undissolved. The mixture was stirred for one hour at room temperature. Undissolved Zein was then removed by filtration to obtain a filtrate solution. A 3.0 ml aliquot of the filtrate solution was accurately measured and placed in a tared aluminum pan and dried in an oven at 70° C. The percent of solids was calculated. Likewise, the blank solution was dried at 70° C. and the solids content of this 3 mL aliquot was determined. The solid weight in the blank solution was subtracted from the solid weight in the filtration solution and the quantity of dissolved Zein in the filtration solution was calculated by difference and reported as g Zein/100 g surfactant solution (also called “% Zein” or “Zein score”).
(§4) As a control, a Zein score was also measured for the Commercial Comparator using a 10% dilution.

Zein corn protein [2] = test: Zein test (Zein score, skin irritation potential); settings: 1 wt % active surfactant solution
From the text: as §1, §2, §3, §4

% Zein (g/100 g surfactant solution) (Zein corn protein [1])	Compound	Normalized Zein Score of Surfactant (Zein) [%]	% Zein (g/100 g surfactant solution) (Zein corn protein [2])
–	Sodium Methyl Cocoyl Taurate [Pureact WS Conc.]	45	–
0.56 g/100 g surfactant solution	Cocoamidopropyl betaine [Cocoamidopropyl betaine (CAPB)]	30	–
–	CCCCCCCCCCCCOS(=O)(=O)[O-].[Na+] [Sodium lauryl sulfate (SLS), Sodium lauryl sulfate]	–	2.70 g/100 g surfactant solution
–	CCCCCCCCCCC(C(=O)OC)S(=O)(=O)O.[Na] (centres unmarked) [MES, Sodium methyl 2-sulfolaurate]	68	–
1.55 g/100 g surfactant solution	Methyl ester sulfonate C16-C18 [Methyl ester sulfonate C16-C18 (MES)]	–	–
–	Disodium Laureth Sulfosuccinate [STEPAN-MILD SL3-BA]	44	–
–	Sodium C14-16 Olefin Sulfonate (AOS) [BIO-TERGE AS-40]	75	–
